Data: PMC6066535, “Polypharmacology of Berberine Based on Multi-Target Binding Motifs” (Frontiers in Pharmacology, 2018)

What was measured:
[1] = biological target: T1, BACE1 (beta-secretase 1) (Homo sapiens, UniProt P56817); assay: SPR (Biacore T200, steady-state affinity); format: binding
T1 construct: commercial BACE1 enzyme (Sigma); amine-coupled on CM5 chip for SPR, free enzyme in FRET assay

[2] = biological target: T1, BACE1 (beta-secretase 1); assay: FRET substrate cleavage assay (Sigma kit); format: biochemical
[3] = biological target: T2, Aβ1-42 (amyloid-β1-42) oligomer (Homo sapiens, UniProt P05067); assay: SPR (Biacore T200, steady-state affinity); format: binding
T2 construct: gene APP; commercial 42-residue peptide (Sigma), cut from amyloid precursor protein (APP residues 672-713); oligomer, amine-coupled on CM5 chip
T2 sequence (P05067 672-713): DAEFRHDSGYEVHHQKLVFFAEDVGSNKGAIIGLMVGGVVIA

T1 sequence (P56817 46-501): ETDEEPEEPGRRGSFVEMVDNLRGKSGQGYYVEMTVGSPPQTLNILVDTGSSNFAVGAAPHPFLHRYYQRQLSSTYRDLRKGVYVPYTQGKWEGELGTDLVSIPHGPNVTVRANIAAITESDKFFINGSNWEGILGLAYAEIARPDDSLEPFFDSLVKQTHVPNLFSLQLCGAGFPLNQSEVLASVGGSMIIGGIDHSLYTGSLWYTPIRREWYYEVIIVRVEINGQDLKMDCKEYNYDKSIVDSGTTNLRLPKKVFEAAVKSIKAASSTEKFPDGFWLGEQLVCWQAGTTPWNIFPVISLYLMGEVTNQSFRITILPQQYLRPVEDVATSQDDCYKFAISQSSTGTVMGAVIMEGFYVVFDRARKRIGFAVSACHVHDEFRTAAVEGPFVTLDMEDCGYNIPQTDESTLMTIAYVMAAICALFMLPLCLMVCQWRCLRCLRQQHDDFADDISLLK

COc1ccc2cc3[n+](cc2c1OC)CCc1cc2c(cc1-3)OCO2 [berberine]
Kd [1]: 1260 nM
IC50 [2]: 63000 nM
Kd [3]: 1490 nM
